Measurements: patent US20220281848A1, “PYRAZOLE-SUBSTITUTED PYRROLIDINONES AS HERBICIDES” (FMC Corporation, priority 2019, published 2022)

Test system: plants
Test: Test D pre-emergence, other plants of Tables D1 and D3
Assay type: in vivo
Conditions: for ABUTH damage to plant (100=total damage; 0=no damage) / AMARE damage to plant (100=total damage; 0=no damage) / DIGSA damage to plant (100=total damage; 0=no damage) / ECHCG damage to plant (100=total damage; 0=no damage) / ORYSA damage to plant (100=total damage; 0=no damage) / PANMI damage to plant (100=total damage; 0=no damage) / SETFA damage to plant (100=total damage; 0=no damage): preemergent
Summary of the method: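 Damage was rated visually from 0 (none) to 100 (total), at 20 DAA for pre-emergence and 15 d for post-emergence. Plants grew from safener-treated seed in a glasshouse at 24/18° C. or 20/16° C. day/night, 65% humidity, watered twice daily.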

[1] = pre-emergence, rate 15, 20 DAA, 100=total damage, 0=no damage
[2] = pre-emergence, rate 30, 20 DAA, 100=total damage, 0=no damage
[3] = pre-emergence, rate 60, 20 DAA, 100=total damage, 0=no damage
[4] = pre-emergence, rate 130, 20 DAA, 100=total damage, 0=no damage
[5] = pre-emergence, rate 250, 20 DAA, 100=total damage, 0=no damage
[6] = pre-emergence, rate 500, 20 DAA, 100=total damage, 0=no damage

## CN1CC(c2cc(C(F)(F)F)n(C)n2)C(C(=O)Nc2ccc(F)cc2C(C)(F)F)C1=O (racemic) [Compound 26]
VERPE, Rates 500, pre-emergence, 20 DAA, 100=total damage, 0=no damage
  VERPE damage rating: 80
[1]
  damage to plant, ALOMY: 0
  damage to plant, AVEFA: 0
  damage to plant, BEAVA: 0
  damage to plant, BROTE: 0
  damage to plant, BRSNN: 0
  damage to plant, HORVW: 0
  damage to plant, SINAR: 0
[2]
  damage to plant, ALOMY: 0
  damage to plant, AVEFA: 0
  damage to plant, BEAVA: 0
  damage to plant, BROTE: 0
  damage to plant, BRSNN: 0
  damage to plant, HORVW: 0
  damage to plant, SINAR: 0
[3]
  damage to plant, ALOMY: 0
  damage to plant, AVEFA: 0
  damage to plant, BEAVA: 0
  damage to plant, BROTE: 0
  damage to plant, BRSNN: 0
  damage to plant, HORVW: 0
  damage to plant, SINAR: 0
[4]
  damage to plant, ALOMY: 10
  damage to plant, AVEFA: 10
  damage to plant, BEAVA: 0
  damage to plant, BROTE: 0
  damage to plant, BRSNN: 0
  damage to plant, HORVW: 10
  damage to plant, SINAR: 0
[5]
  damage to plant, ALOMY: 70
  damage to plant, AVEFA: 50
  damage to plant, BEAVA: 0
  damage to plant, BRSNN: 0
  damage to plant, HORVW: 40
  damage to plant, SINAR: 0
[6]
  damage to plant, ALOMY: 70
  damage to plant, AVEFA: 90
  damage to plant, BEAVA: 0
  damage to plant, BROTE: 10
  damage to plant, BRSNN: 10
  damage to plant, HORVW: 30
  damage to plant, SINAR: 0
Rates 15, 20 DAA
  ABUTH damage to plant (100=total damage; 0=no damage): 0
  AMARE damage to plant (100=total damage; 0=no damage): 0
  DIGSA damage to plant (100=total damage; 0=no damage): 20
  ECHCG damage to plant (100=total damage; 0=no damage): 0
  ORYSA damage to plant (100=total damage; 0=no damage): 0
  PANMI damage to plant (100=total damage; 0=no damage): 0
  SETFA damage to plant (100=total damage; 0=no damage): 0
Rates 30, 20 DAA
  ABUTH damage to plant (100=total damage; 0=no damage): 0
  AMARE damage to plant (100=total damage; 0=no damage): 0
  DIGSA damage to plant (100=total damage; 0=no damage): 90
  ECHCG damage to plant (100=total damage; 0=no damage): 10
  ORYSA damage to plant (100=total damage; 0=no damage): 0
  PANMI damage to plant (100=total damage; 0=no damage): 0
  SETFA damage to plant (100=total damage; 0=no damage): 20
Rates 60, 20 DAA
  ABUTH damage to plant (100=total damage; 0=no damage): 0
  AMARE damage to plant (100=total damage; 0=no damage): 0
  DIGSA damage to plant (100=total damage; 0=no damage): 90
  ECHCG damage to plant (100=total damage; 0=no damage): 30
  ORYSA damage to plant (100=total damage; 0=no damage): 0
  PANMI damage to plant (100=total damage; 0=no damage): 0
  SETFA damage to plant (100=total damage; 0=no damage): 70
Rates 130, 20 DAA
  ABUTH damage to plant (100=total damage; 0=no damage): 0
  AMARE damage to plant (100=total damage; 0=no damage): 0
  DIGSA damage to plant (100=total damage; 0=no damage): 90
  ECHCG damage to plant (100=total damage; 0=no damage): 20
  ORYSA damage to plant (100=total damage; 0=no damage): 0
  PANMI damage to plant (100=total damage; 0=no damage): 0
  SETFA damage to plant (100=total damage; 0=no damage): 90
Rates 250, 20 DAA
  ABUTH damage to plant (100=total damage; 0=no damage): 0
  AMARE damage to plant (100=total damage; 0=no damage): 70
  DIGSA damage to plant (100=total damage; 0=no damage): 90
  ECHCG damage to plant (100=total damage; 0=no damage): 60
  ORYSA damage to plant (100=total damage; 0=no damage): 0
  PANMI damage to plant (100=total damage; 0=no damage): 0
  SETFA damage to plant (100=total damage; 0=no damage): 90
Rates 500, 20 DAA
  ABUTH damage to plant (100=total damage; 0=no damage): 0
  AMARE damage to plant (100=total damage; 0=no damage): 60
  DIGSA damage to plant (100=total damage; 0=no damage): 90
  ECHCG damage to plant (100=total damage; 0=no damage): 90
  ORYSA damage to plant (100=total damage; 0=no damage): 0
  PANMI damage to plant (100=total damage; 0=no damage): 0
  SETFA damage to plant (100=total damage; 0=no damage): 90
